As usually defined, the IC50 is the midpoint of a concentration-inhibition curve.

Drawing on patent US20230026856A1, “HETEROCYCLIC COMPOUNDS AND METHODS OF USE THEREOF” (SPARCBIO LLC, priority 2020, published 2023), this text covers IC50 for five compounds.

Some results are limits rather than exact numbers.

Test [1] addresses T1, KRAS G12C protein (Homo sapiens, UniProt P01116, G12C). The test is described as follows: Nucleotide exchange assay, Method III (TR-FRET, association of KRAS G12C with Raf-RBD, SOS1-mediated exchange). The class given is biochemical. To be noted: overnight (18 hr) incubation with GDP-bound KRAS G12C. Summed up: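 Compounds in 11-point 3-fold dilutions were preincubated 18 h at 23 °C with GDP-bound His-tagged KRAS G12C (25 nM in the 2× mix). SOS1/GTP was then added for 1 h at 23 °C, followed by FLAG-Raf-RBD with Tb-anti-FLAG/D2-anti-His for 2 h at room temperature. IC50 values came from non-linear regression of the TR-FRET signal.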
Target sequence in this assay (P01116 1-188 isoform P01116-2 G12C): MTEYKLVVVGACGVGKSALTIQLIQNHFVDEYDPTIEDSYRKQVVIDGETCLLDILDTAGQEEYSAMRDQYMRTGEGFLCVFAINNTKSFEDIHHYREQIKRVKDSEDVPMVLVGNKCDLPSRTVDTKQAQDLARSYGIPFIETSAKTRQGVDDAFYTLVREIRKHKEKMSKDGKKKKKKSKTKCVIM
On the technique in general: Time-resolved FRET reads energy transfer from a long-lived donor to a nearby acceptor.

Test [2] concerns the target T1, KRAS G12C protein. In words: Nucleotide exchange assay, Method I (BODIPY-GDP fluorescence, SOS1-mediated exchange of GDP for GTP). The class given is biochemical. The settings on record: 30 minutes incubation with KRAS G12C/BODIPY-GDP. The method, then:
Method I. A biochemical assay to assess activity of test compounds in inhibiting SOS1-mediated exchange of GDP for GTP on the KRAS G12C protein was performed at Reaction Biology Corporation (Malvern, Pa., USA). In this assay, exchange of BODIPY-GDP to GTP results in the decrease in BODIPY-GDP fluorescence. Briefly, recombinant KRAS G12C protein (aa 2-169, prepared by Reaction Biology) was labelled with 5× excess of BODIPY-GDP. Excess BODIPY-GDP was separated from loaded protein using a gravity desalting column. Compounds were incubated with 0.15 μM KRAS G12C/BODIPY-GDP for 30 minutes. A mixture of GTP (25 μM) and SOS1 (70 nM; aa 564-1049, prepared by Reaction Biology) was added to the reaction to initiate the nucleotide exchange reaction. Reaction progress was monitored in real time (Ex/Em=(483/530)) in CLARIOstar (BMG LabTech). After signal normalization, the data were fitted using the “one phase exponential decay” model in GraphPad Prism and rate constants obtained. Rate constants were converted to % activity values which were fit to a 4-parameter sigmoidal dose-response curve in Prism to derive IC50 values for inhibition of exchange activity by test compounds.
Target sequence in this assay (P01116 2-169 isoform P01116-2 G12C): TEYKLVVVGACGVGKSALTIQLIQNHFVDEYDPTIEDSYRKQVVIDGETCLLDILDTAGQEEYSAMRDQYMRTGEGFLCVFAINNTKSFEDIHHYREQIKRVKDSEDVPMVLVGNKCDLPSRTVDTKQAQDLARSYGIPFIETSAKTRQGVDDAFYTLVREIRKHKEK

The subject of another test is A549. In words: Cell proliferation assay panel (Cell Titer-Glo), A549. The class given is cell-based. To be noted: Homo sapiens, 72 hr. As to the method: (§1) Potency of compounds was determined in cell proliferation assays in a panel of cancer cell lines. Cells were seeded in 384-well plates (Corning, Cat. #3765) at specified densities in 40 μL of culture medium and incubated overnight at 37° C. in a 5% CO2 incubator (culture conditions). With a robotic dispenser, serially diluted test compounds were added in a volume of 20 nL DMSO to wells in the culture plate to achieve the final desired concentrations of test compounds, and the cells were further incubated in culture conditions for 72 hr. The assay was terminated by addition of 25 μL of Cell Titer-Glo reagent (Promega, Madison, Wis.) to each well. Contents were mixed, the plate was incubated for 10 min at room temperature and luminescence was measured. The IC50 value of each test compound was calculated with XLFit curve fitting software. Results are shown in Table 4. ‘+++’ indicates IC50 values ≤300 nM, ‘++’ indicates IC50 values between 300 nM-3 μM, and ‘+’ indicates IC50 values ≥3 μM.
On the technique in general: ATP-based viability assays read luminescence as a measure of living cells.

A further test concerns SW1573. The test is described as follows: Cell proliferation assay panel (Cell Titer-Glo), SW1573. It counts as cell-based. The settings on record: Homo sapiens, 72 hr. As to the method:
as §1

Another test concerns MIA PaCa-2. In words: Cell proliferation assay panel (Cell Titer-Glo), MIA PaCa-2. It counts as cell-based. The settings on record: Homo sapiens, MIA PaCa-2, 72 h. The method, then:
as §1

The subject of a further test is KYSE-410. The test is described as follows: Cell proliferation assay panel (Cell Titer-Glo), KYSE-410. The class given is cell-based. The settings on record: Homo sapiens, 72 hr. As to the method: as §1
The subject of another test is NCI-H1373. The test is described as follows: Cell proliferation assay panel (Cell Titer-Glo), NCI-H1373. It counts as cell-based. To be noted: Homo sapiens, 72 hr. As to the method: as §1
A further test deals with NCI-H2030. The test is described as follows: Cell proliferation assay panel (Cell Titer-Glo), NCI-H2030. It counts as cell-based. The settings on record: Homo sapiens, 72 hr. The method, then: as §1
Another test relates to NCI-H358. In words: Cell proliferation assay panel (Cell Titer-Glo), NCI-H358. The class given is cell-based. To be noted: Homo sapiens, 72 hr. The method, then:
as §1

For the next test, the system named is NCI-H2122. The test is described as follows: Cell proliferation assay panel (Cell Titer-Glo), NCI-H2122. The class given is cell-based. The settings on record: Homo sapiens, 72 hr. As to the method:
as §1

A further test deals with NCI-H358 cells. The test is described as follows: 3D cell proliferation assay (Cell Titer-Glo 3D). The class given is cell-based. The settings on record: Homo sapiens, NCI-H358, 168 h, NCI-H358, 3D (ultra-low attachment); 7 days. The method, then:
NCI-H358 cells (ATCC® CRL-5807™) were plated in a 384-well Black/Clear Round Bottom Ultra-Low Attachment Microplate (Corning) in medium (RPMI-1640+10% FBS) at a density of 1000 cells in 50 μL per well, then incubated overnight at 37° C. and 5% CO2. Cells were treated with test compounds at 9 concentrations within a specified concentration range (e.g., 0.5 nM-10 μM) for generation of dose response curves. Test compounds were prepared by 1:3 serial dilution in DMSO from a specified starting concentration (e.g., 20 μM, 2 μM or 0.2 μM) and then added to wells of the assay plate in a total volume of 150 nL DMSO. The cells were further incubated at 37° C. and 5% CO2 for 7 days. Cell viability was assessed by adding 40 μL of Cell Titer-Glo® 3D reagent (Cat. No.: G9683, Promega) to each well and reading luminescence after mixing and incubation of the samples. The IC50 value of each test compound was calculated with XLFit curve fitting software.

In test [3] the test system is Phosphorylation of ERK in NCI-H358 cells. In words: pERK assay, Method II (homogeneous TR-FRET, phospho-ERK Thr202/Tyr204). To be noted: Homo sapiens, 4 hr compound treatment. The class given is cell-based. As to the method: Method II. Phosphorylation of ERK was assessed by a homogeneous TR-FRET assay (Advanced phospho-ERK (Thr202/Tyr204) cellular kit; Cat. #64AERPEH, Cisbio). In brief, NCI-H358 cells were seeded in a 384-well culture plate at a density of 6000 cells in 40 μL medium/well and grown overnight at 37° C. and 5% CO2. Each test compound was dosed in duplicate in a 10-dose 3-fold titration starting at 10 μM or 2 μM. The culture plate was then incubated for 4 hr in the incubator. At the end of the compound treatment, the medium was removed, 35 μL of lysis buffer was added to each well, and the plate was agitated on a plate shaker for 40 mins at 4° C. An antibody cocktail of phospho-ERK1/2 Eu Cryptate antibody and Phospho-ERK1/2 d2 antibody was prepared by separately diluting the antibodies 20-fold with detection buffer and then mixing them together. 3.4 μL of antibody cocktail was dispensed to each well of an empty 384-well white ProxiPlus assay plate (Perkin Elmer), and the plate briefly centrifuged. 13.6 μL of cell lysate was then added to the antibody-containing wells, and the plate was briefly centrifuged and then incubated 2 hr at room temperature. The plate was read on a fluorescence plate reader (Envision2104, Perkin Elmer), with an excitation wavelength of 337 nm and emission wavelengths of 615 nm and 665 nm. The IC50 value of each test compound was calculated with XLFit curve fitting software. Results are shown in Table 6. ‘+++’ indicates IC50 values ≤300 nM, ‘++’ indicates IC50 values between 300 nM-3 μM, and ‘+’ indicates IC50 values ≥3 μM.

Consider `C=CC(=O)N1CCC(n2c(=O)c(=O)n(-c3c(C)ccnc3C(C)C)c3nc(-c4c(O)cccc4F)c(F)cc32)CC1` (single isomer, unassigned) [1 (Isomer A), 1-(1-acryloylpiperidin-4-yl)-7-fluoro-6-(2-fluoro-6-hydroxyphenyl)-4-(2-isopropyl-4-methylpyridin-3-yl)-1,4-dihydropyrido[2,3-b]pyrazine-2,3-dione], for which the half-maximal inhibitory concentration (IC50) at KRAS G12C protein [1] was in the range of 300 to 3000 nM; against KRAS G12C protein [2] it was 0.3 to 3 µM.

On to `C=CC(=O)N1CCC(n2c(=O)c(=O)n(-c3c(C)ccnc3C(C)C)c3nc(-c4c(O)cccc4F)c(F)cc32)CC1` (single isomer, unassigned) [1 (Isomer B), 1-(1-acryloylpiperidin-4-yl)-7-fluoro-6-(2-fluoro-6-hydroxyphenyl)-4-(2-isopropyl-4-methylpyridin-3-yl)-1,4-dihydropyrido[2,3-b]pyrazine-2,3-dione], for which the IC50 at KRAS G12C protein [2] is ≥ 3 µM.

With `C=CC(=O)N1CCN(c2c(C(=O)NC)c(=O)n(-c3c(C)ccnc3C(C)C)c3nc(-c4c(O)cccc4F)c(F)cc23)CC1` (single isomer, unassigned) [84 (Isomer B), 4-(4-acryloylpiperazin-1-yl)-6-fluoro-7-(2-fluoro-6-hydroxyphenyl)-1-(2-isopropyl-4-methylpyridin-3-yl)-N-methyl-2-oxo-1,2-dihydro-1,8-naphthyridine-3-carboxamide], the half-maximal inhibitory concentration (IC50) in the test on A549 was ≥ 3000 nM; with SW1573, ≥ 3000 nM; in the test on MIA PaCa-2 it was 300 to 3000 nM; in the test with KYSE-410 it was ≥ 3000 nM; in the test on NCI-H1373, ≥ 3000 nM; in the test on NCI-H2030, ≥ 3000 nM. Besides, the IC50 in the test on NCI-H358 was ≤ 300 nM; in the test on NCI-H2122, ≥ 3000 nM.

For `C=CC(=O)N1CCN(c2c(S(C)(=O)=O)c(=O)n(-c3c(C)ccnc3C(C)C)c3nc(-c4c(O)cccc4F)c(F)cc23)CC1` (single isomer, unassigned) [123 (Isomer A), 4-(4-acryloylpiperazin-1-yl)-6-fluoro-7-(2-fluoro-6-hydroxyphenyl)-1-(2-isopropyl-4-methylpyridin-3-yl)-3-(methylsulfonyl)-1,8-naphthyridin-2(1H)-one], the half-inhibitory concentration (IC50) in the test with A549 is ≥ 3000 nM; against KRAS G12C protein [1], ≤ 300 nM; with SW1573, ≥ 3000 nM; with MIA PaCa-2, 300 to 3000 nM; in the test on NCI-H358 cells it was ≤ 100 nM; with KYSE-410, ≥ 3000 nM. In addition, the IC50 was ≥ 3000 nM in the test on NCI-H1373; ≤ 300 nM in [3]; 300 to 3000 nM in the test with NCI-H2030; ≤ 300 nM in the test with NCI-H358; 300 to 3000 nM with NCI-H2122.

For `C=CC(=O)N1CCN(c2c(C(=O)NCC)c(=O)n(-c3c(C)ccnc3C(C)C)c3nc(-c4c(O)cccc4F)c(F)cc23)CC1` (single isomer, unassigned) [293 (Isomer A), 4-(4-acryloylpiperazin-1-yl)-N-ethyl-6-fluoro-7-(2-fluoro-6-hydroxyphenyl)-1-(2-isopropyl-4-methylpyridin-3-yl)-2-oxo-1,2-dihydro-1,8-naphthyridine-3-carboxamide], the IC50 against KRAS G12C protein [1] was ≤ 300 nM; with MIA PaCa-2, 300 to 3000 nM; in the test on NCI-H358 cells, ≤ 100 nM; in test [3] it was 300 to 3000 nM.
